Results: patent publication US9895344B2, “Treating various disorders with 7,8-dihydroxyflavone and derivatives thereof” (EMORY UNIVERSITY, priority 2008, dated 2018)

Tests used:
TrkB F616A = molecular target: T1, TrkB F616A (Mus musculus, UniProt P15209, F616A); assay: TrkB phosphorylation in cortical neurons from TrkB F616A knockin mice; format: cell-based; conditions: inhibitor 100 nM, pretreated 30 minutes
T1 construct: endogenous in cells; host or cells: cortical neurons of TrkB F616A knock-in mice
Experimental: (§1) To explore whether the neuroprotective action of 7,8-dihydroxyflavone is dependent on TrkB activation in vivo, TrkB F616A knockin mice were used. […] To further assess whether 7,8-dihydroxyflavone can mimic BDNF, cortical neurons were prepared from TrkB F616A knockin mice. The cortical neurons were pretreated for 30 minutes with either K252a Trk tyrosine kinase inhibitor (100 nM) or 1NMPP1 inhibitor (100 nM) followed by 0.5 μM 7,8-dihydroxyflavone for 30 minutes.

Akt and Erk1/2 = Akt and Erk1/2 activation in cortical neurons from TrkB F616A knockin mice; format: cell-based; conditions: inhibitor 100 nM
Experimental: as §1

immobility time = assay: Forced swim test in TrkB F616A knockin mice with saline or 1NMPP1 pretreatment; format: in vivo; conditions: 1NMPP1 25 μM in drinking water
Experimental: To assess whether the behavior responses by 7,8-DHF and its derivative are mediated by TrkB receptor, TrkB F616A knockin mice were utilized. The transgenic mice were subjected to saline or 1NMPP1 pretreatment (25 μM), respectively (drinking water provided one day prior to drug injection and maintained throughout whole experiment). The control and/or drugs were provided for five days. […] (Data presented in FIGS. 34, 35, and 36 as mean±SEM; *p<0.05 against vehicle, #P<0.01 against vehicle and ***P<0.0001 against vehicle, student t-test.)

KA-provoked apoptosis = assay: KA-provoked neuronal cell death in TrkB F616A knockin mice, intraperitoneal (caspase-3 immunoblot); format: in vivo
Experimental: To determine if 1NMPP1 would make neurons treated with 7,8-dihydroxyflavone vulnerable to KA-provoked neuronal cell death, TrkF616A knockin mice were fed with 1NMPP1 (25 mM) in drinking water one day prior to pharmacological reagent treatment. The next day, the mice were intraperitoneally injected with KA (25 mg/kg), or 7,8-dihydroxyflavone (5 mg/kg) 4 hours prior to KA injection. The control mice were injected with either KA or 7,8-dihydroxyflavone alone, or the mice were administered 7,8-dihydroxyflavone 4 hours before KA. In 4 days, the mice were sacrificed and the brains were homogenated and ultracentrifuged. The supernatant was employed for SDS-PAGE and immunoblotting analysis.

TrkB [1] = molecular target: T2, TrkB (Rattus norvegicus, UniProt Q63604); assay: TrkB activation in primary cortical neurons (p-TrkB Y817 immunoblotting); format: cell-based; design: endogenous in cells; host or cells: primary cortical neurons; conditions: 500 nM, 30 min, FIG. 27 left
Experimental: Primary cultured rat cortical neurons were prepared as follows. E17 rat pups were decapitated and cortex was extirpated, cross chopped, and suspended by pipetting for separation in 5% fetal calf serum (FCS), 5% horse serum (HS) DMEM. The cell suspension was then centrifuged at 250×g for 5 minutes. This operation was repeated again. Cells were seeded into polyethyleneimine-coated 10 cm^2 dishes and 12-well plates including coated-coverslips and incubated at 37° C. in 5% CO2/95% air. After 3 hours, the culture medium was changed to Neurobasal containing B-27 supplement (Invitrogen; Carlsbad, Calif.) and incubated for 4 days. For maintenance, half of the culture medium was changed to fresh Neurobasal/B27 every 4 days. After 1 week, the dished cultured neurons were ready for use.
To compare the TrkB activation by the synthetic compounds of Examples 9 and 10 (see FIG. 26), primary cortical cultures were prepared. The cortical neurons were treated with 500 nM of various compounds for 30 min and collected the cell lysates. […] Replacing the H-bond acceptor O atom with hydrogen bond donor NH reduced its stimulatory effect. […] In comparison, 7,8-DHF provoked TrkB activation with the minimal concentration of 100 nM (FIG. 27, right panels).
Target sequence in this assay (Q63604 32-821): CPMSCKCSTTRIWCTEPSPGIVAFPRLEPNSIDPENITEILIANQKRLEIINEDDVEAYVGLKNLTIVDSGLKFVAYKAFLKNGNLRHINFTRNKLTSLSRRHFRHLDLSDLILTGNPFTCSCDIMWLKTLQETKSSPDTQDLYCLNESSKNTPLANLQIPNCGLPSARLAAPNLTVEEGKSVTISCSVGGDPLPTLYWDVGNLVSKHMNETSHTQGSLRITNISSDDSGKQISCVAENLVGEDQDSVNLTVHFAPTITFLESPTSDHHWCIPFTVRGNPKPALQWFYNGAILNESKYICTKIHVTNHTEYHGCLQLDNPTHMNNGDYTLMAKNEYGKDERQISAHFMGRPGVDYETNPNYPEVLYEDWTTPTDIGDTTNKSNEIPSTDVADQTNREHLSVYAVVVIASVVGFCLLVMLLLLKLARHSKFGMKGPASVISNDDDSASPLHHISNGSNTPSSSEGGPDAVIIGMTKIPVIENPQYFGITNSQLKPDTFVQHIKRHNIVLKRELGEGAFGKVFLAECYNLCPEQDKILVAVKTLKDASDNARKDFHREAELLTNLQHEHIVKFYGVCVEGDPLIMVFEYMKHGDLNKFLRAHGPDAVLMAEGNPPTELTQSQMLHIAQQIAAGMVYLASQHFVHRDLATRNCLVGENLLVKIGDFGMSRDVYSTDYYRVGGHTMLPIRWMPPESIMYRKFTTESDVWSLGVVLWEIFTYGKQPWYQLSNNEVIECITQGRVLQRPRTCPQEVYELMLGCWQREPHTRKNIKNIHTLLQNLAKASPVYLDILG

Erk = assay: Western analysis of Erk phosphorylation in hippocampal neurons; format: cell-based; conditions: FIG. 9
Experimental: (§2) To further examine whether 7,8-dihydroxyflavone can stimulate TrkB-mediated downstream signaling cascades, Western analysis was performed.
(§3) To probe the time course of 7,8-dihydroxyflavone triggered TrkB activation, hippocampal neurons were treated with 7,8-dihydroxyflavone at 500 nM and phosphorylation of Erk and Akt was determined over time by Western analysis. […] Stimulation of Erk and Akt by 7,8-dihydroxyflavone also occurred in a dose dependent manner.

hippocampal neurons = assay: Glutamate-triggered apoptosis in hippocampal neurons; format: cell-based; conditions: pretreated 30 minutes, 50 μM glutamate for 16 hours, compared with BDNF, FIG. 6
Experimental: To examine whether these compounds could promote neuronal survival, hippocampal neurons were prepared and the cultures were pretreated with various flavone derivatives for 30 minutes, followed by treatment with 50 μM glutamate for 16 hours.

T48 cells = assay: Fluorescent apoptotic assay (Staurosporine, MR(DEVD)2) in TrkB stably transfected T48 cells; format: cell-based, murine; conditions: for EC50: Mus musculus, T48 cells, FIG. 5, read-out: effective concentration at which 50% (EC50) of the cells are protected from apoptosis; for suppression of apoptosis in T48 cell line: Staurosporine-induced apoptosis, FIG. 1B and FIG. 4
Excerpt: Create and test reporter cell lines. In order to identify small molecules that mimic BDNF and activate TrkB, TrkB stably transfected murine cell lines were created. The T48 and T62 cell lines were created by transfecting basal forebrain SN56 cells, which express negligible TrkB, with a TrkB expression construct. […] To test resistance to apoptosis, SN56 cells and the T48 cell line were either untreated or treated with BDNF, and then subjected to an apoptotic assay. Briefly, the cells were treated with 0.75 μM Staurosporine for 9 hours, and 1 hour before the termination of the experiment, the cells were treated with 10 μM MR (DEVD)2. The cells were then fixed with 4% paraformaldehyde for 15 minutes, washed with phosphate buffered saline (PBS), and incubated with Hoechst 33342 for 10 minutes. Cover slides were washed with PBS, mounted, and the cells were examined using a fluorescent microscope to see which cells turned red upon caspase cleavage.
Cell-based screen. To screen a large number of chemicals, a cell-based apoptic assay was developed using a cell permeable fluorescent dye, MR (DEVD)2, which turns red upon caspase cleavage in apoptotic cells. SN56 and T48 cells were plated at 10,000 cells per well in multiple 96-well plates and exposed to 2000 biologically active compounds from the Spectrum Collection Library for 30 minutes at a concentration of 10 μM in DMSO. Following exposure to the compounds, the cells were subjected to the developed fluorescent apoptotic assay described above (method schematically shown in FIG. 2).
In the initial screen, 5 of the 66 positive compounds were flavone derivatives or similar compounds. […] To compare the apoptosis inhibitory activity, the flavone derivatives were preincubated with SN56 and T48 cells, and subsequently were subjected to the fluorescent apoptotic assay as described above. […] Additionally, the effective concentration at which 50% (EC50) of the cells are protected from apoptosis was determined for 7,8-dihydroxyflavone, Cianidanol, Pinocembrin and Diosmetin.

Caspase-3 activation = assay: Glutamate-provoked Caspase-3 activation in wild-type and TrkB-/- cortical neurons; format: cell-based, mice; conditions: control compounds, FIG. 21
Experimental: To determine whether 7,8-dihydroxyflavone can selectively activate TrkB receptor and prevent neuronal cell death, cortical neurons were prepared from homozygous pups of TrkB+/−mice, which were mated to the same genotype. […] Glutamate nonselectively elicited weak TrkA phosphorylation in both wild-type and TrkB-null neurons (FIG. 21, row 3).

Akt = assay: Western analysis of Akt phosphorylation in hippocampal neurons; format: cell-based; conditions: FIG. 9
Experimental: as §2, §3

TrkB [2] = molecular target: T2, TrkB; assay: TrkB receptor dimerization in cotransfected HEK293 cells (GST pull-down); format: cell-based; design: expressed in transfected cells; host or cells: HEK293
Experimental: BDNF is known to bind the TrkB receptor and provoke its dimerization (Barbacid, J. Neurobiol., 25:1386-1403, 1994; Klein et al, Cell, 66:395-403, 1991). To explore whether 7,8-dihydroxyflavone triggers TrkB receptor dimerization, HEK293 cells were cotransfected with GST-TrkB and HA-TrkB or HA-TrkA. The cells were then treated with BDNF or small flavone compounds (0.5 μM) for 30 minutes. The cells were harvested, washed once in PBS, and lysed in 1 ml lysis buffer (50 mM Tris, ph 7.4, 150 mM NaCl, 1 mM EDTA, 0.5% Triton X-100, 1.5 mM Na3VO4, 50 mM NaF, 10 mM sodium pyrophosphate, 10 mM sodium β-glycerophosphate, 1 mM phenylmethylsulfonyl fluoride (PMSF), 5 mg/ml aprotinin, 1 mg/ml leupeptin, 1 mg/ml pepstatin A) and centrifuged for 10 minutes at 14,000×g at 4° C. The supernatant was transferred to a fresh tube and transfected TrkB receptor was separated from the supernatant with glutathione beads, and the coprecipitated proteins were resolved on SDS-PAGE.
Target sequence in this assay (Q63604 32-821): as above
Target sequence in this assay (Q63604 32-821): as above

immobility = assay: Forced swim test, 5 days intraperitoneal; format: in vivo, mice; conditions: intraperitoneally for 5 days; imipramine 20 mg/kg, amitryptyline 15 mg/kg, 7,8-dihydroxyflavone 5 mg/kg; FIG. 25
Experimental: Adult male mice (2-3 months old, n=8) were randomly submitted, without a pre-swim, to a forced swim test of 6 minutes with immobility recorded in the last 4 minutes. Mice were injected intraperitoneally for 5 days with saline, imipramine (20 mg/kg), amitryptyline (15 mg/kg), or 7,8-dihydroxyflavone (5 mg/kg). The mice were allowed to adapt to the test room for 2 days, and the mice were placed in a clear glass cylinder with a diameter of 16 cm, half-filled with clear water at 24° C. […] Data are presented as mean±SEM; *p<0.05 against vehicle, **P<0.01 against vehicle and ***P<0.0001 against vehicle, student t-test.

T1 sequence (P15209 32-821 F616A): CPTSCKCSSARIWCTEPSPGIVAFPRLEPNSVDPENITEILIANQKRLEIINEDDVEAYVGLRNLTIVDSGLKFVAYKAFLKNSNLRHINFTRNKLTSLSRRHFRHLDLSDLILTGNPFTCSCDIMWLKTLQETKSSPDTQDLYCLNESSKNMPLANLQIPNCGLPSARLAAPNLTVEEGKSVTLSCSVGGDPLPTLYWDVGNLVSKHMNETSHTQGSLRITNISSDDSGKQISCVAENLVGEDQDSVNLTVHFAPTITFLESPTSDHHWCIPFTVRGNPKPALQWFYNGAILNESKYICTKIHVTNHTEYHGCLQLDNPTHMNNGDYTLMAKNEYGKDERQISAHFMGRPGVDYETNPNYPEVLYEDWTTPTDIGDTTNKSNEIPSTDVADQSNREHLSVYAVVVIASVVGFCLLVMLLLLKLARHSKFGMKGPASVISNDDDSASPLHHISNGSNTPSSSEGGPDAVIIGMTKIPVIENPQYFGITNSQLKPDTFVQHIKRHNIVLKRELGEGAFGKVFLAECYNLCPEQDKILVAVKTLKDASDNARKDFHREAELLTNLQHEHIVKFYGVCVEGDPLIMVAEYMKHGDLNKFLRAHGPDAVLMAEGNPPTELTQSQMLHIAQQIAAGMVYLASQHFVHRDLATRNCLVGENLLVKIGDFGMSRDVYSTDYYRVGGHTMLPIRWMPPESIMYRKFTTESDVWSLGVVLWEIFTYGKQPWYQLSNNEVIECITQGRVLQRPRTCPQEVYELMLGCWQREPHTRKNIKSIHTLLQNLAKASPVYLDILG

Molecule: CC(C)(C)n1nc(Cc2cccc3ccccc23)c2c(N)ncnc21 [1NMPP1]
- blocking of BDNF-provoked TrkB phosphorylation (TrkB F616A): selectively blocked
- blocking of 7,8-dihydroxyflavone-provoked TrkB phosphorylation (TrkB F616A; 0.5 μM 7,8-dihydroxyflavone): selectively blocked
- blocking of BDNF-triggered Akt and Erk1/2 activation (Akt and Erk1/2): blocked
- effect on Akt activation by 7,8-dihydroxyflavone (Akt and Erk1/2): partially decreased Akt activation
- effect on Erk1/2 activation by 7,8-dihydroxyflavone (Akt and Erk1/2): failed to inhibit Erk1/2 activation
- immobility time, 1NMPP1 treated versus saline control groups (immobility time): No significant difference
- effect of pretreatment on KA-provoked apoptosis (KA-provoked apoptosis; 1NMPP1 in drinking water): elevated KA-provoked apoptosis
- apoptosis in TrkB F616A mice, treatment alone without KA (KA-provoked apoptosis; FIG. 24): no effect on apoptosis

Molecule: Br.O=c1cc(-c2ccc(F)cc2)[nH]c2c(O)c(O)ccc12 [2-(4-fluorophenyl)-7,8-dihydroxyquinolin-4(1H)-one.HBr]
- TrkB activation (TrkB [1]): did not provoke the same level of TrkB activation

Molecule: Br.O=c1cc(-c2cncnc2)oc2c(O)c(O)ccc12 [7,8-dihydroxy-2-(pyrimidin-5-yl)-4H-chromen-4-one.HBr]
- TrkB activation (TrkB [1]): robustly provoked TrkB activation

Molecule: Br.O=c1cc(-c2ccccc2)[nH]c2c(O)c(O)ccc12 [7,8-dihydroxy-2-phenylquinolin-4(1H)-one, 7,8-dihydroxy-2-phenylquinolin-4(1H)-one.HBr]
- TrkB activation (TrkB [1]): did not provoke the same level of TrkB activation

Molecule: Oc1cc(O)c2c(c1)O[C@H](c1ccc(O)c(O)c1)[C@@H](O)C2 [Cianidanol]
- Erk activation (Western) (Erk): activated
- protection of hippocampal neurons from glutamate-induced apoptosis (hippocampal neurons): comparable anti-apoptosis activity as BDNF
- EC50 (T48 cells): 0.1 µM
- suppression of apoptosis in T48 cell line (T48 cells): strongly suppressed apoptosis

Molecule: COc1ccc(-c2cc(=O)c3c(O)cc(O)cc3o2)cc1O [Diosmetin, reference compound]
- Erk activation (Western) (Erk): activated
- caspase-3 activation in both wild-type and TrkB-/- neurons (Caspase-3 activation): non-selectively suppressed caspase-3 activation in both neurons
- protection of hippocampal neurons from glutamate-induced apoptosis (hippocampal neurons): only slightly protected neurons
- EC50 (T48 cells): 0.5 µM
- suppression of apoptosis in T48 cell line (T48 cells): strongly suppressed apoptosis
- Akt activation (Western) (Akt): activated

Molecule: Oc1ccc([C@H]2Oc3cc(O)cc(O)c3C[C@H]2O)cc1 [Epiafzelechin]
- protection of hippocampal neurons from glutamate-induced apoptosis (hippocampal neurons): only slightly protected neurons
- suppression of apoptosis in T48 cell line (T48 cells): failed to suppress apoptosis

Molecule: Oc1ccc2c(c1)O[C@H](c1ccc(O)c(O)c1)[C@@H](O)C2 [Fisetinidol]
- protection of hippocampal neurons from glutamate-induced apoptosis (hippocampal neurons): no effect
- suppression of apoptosis in T48 cell line (T48 cells): failed to suppress apoptosis

Molecule: CC1=CC(=O)c2ccccc2C1=O [Menadione]
- protection of hippocampal neurons from glutamate-induced apoptosis (hippocampal neurons): comparable anti-apoptosis activity as BDNF
- suppression of apoptosis in T48 cell line (T48 cells): strongly suppressed apoptosis

Molecule: O=C1C[C@@H](c2ccccc2)Oc2cc(O)cc(O)c21 [Pinocembrin, reference compound]
- Erk activation (Western) (Erk): activated
- TrkB dimerization (TrkB [2]; GST-TrkB and HA-TrkB, 0.5 μM, 30 minutes, FIG. 14): failed
- caspase-3 activation in both wild-type and TrkB-/- neurons (Caspase-3 activation): non-selectively suppressed caspase-3 activation in both neurons
- protection of hippocampal neurons from glutamate-induced apoptosis (hippocampal neurons): comparable anti-apoptosis activity as BDNF
- EC50 (T48 cells): 0.1 µM
- suppression of apoptosis in T48 cell line (T48 cells): strongly suppressed apoptosis

Molecule: O=c1c(O)c(-c2ccc(O)c(O)c2)oc2cc(O)cc(O)c12 [Quercetin, reference compound]
- Erk activation (Western) (Erk): activated

Molecule: CN(C)CCC=C1c2ccccc2CCc2ccccc21 [amitryptyline]
- swimming immobility (immobility): decreased

Molecule: CN(C)CCCN1c2ccccc2CCc2ccccc21 [imipramine]
- swimming immobility (immobility): decreased

B1: BDNF: brain-derived neurotrophic factor, positive control, from Roche (protein, UniProt P23560 19-247, looked up)
Neurotrophic factor BDNF …: APMKEANIRGQGGLAYPGVRTHGTLESVNGPKAGSRGLTSLADTFEHVIEELLDEDQKVRPNEENNKDADLYTSRVMLSSQVPLEPPLLFLLEEYKNYLDAANMSMRVRRHSDPARRGELSVCDSISEWVTAADKKTAVDMSGGTVTVLEKVPVSKGQLKQYFYETKCNPMGYTKEGCRGIDKRHWNSQCRTTQSYVRALTMDSKKRIGWRFIRIDTSCVCTLTIKRGR
- dimerization of TrkB with TrkA receptor (TrkB [2]; GST-TrkB and HA-TrkA cotransfected): failed to dimerize with TrkA receptor
- suppression of apoptosis in T48 cell line (T48 cells): decreased apoptosis
